Source: patent US10238688B2, “Combination therapies for bladder cancer” (GENEDIA BIOTECH CO. LTD., priority 2015, dated 2019)

Key:
Type in all cases: cell-based, human
UM-UC-3 = assay: MTT cell survival / IC50, UM-UC-3 cells; settings: for Cell survival (%) / Single drug 4X Cell Survival (%): UM-UC-3; for Cell survival (%): Table S3, ng/ml: Pi 40, Pa 160, EH 250, Ci 1500, Mi 200, 1=Ci/Mi, 2=EH/Ci/Mi, 3=Pa/Ci/Mi, 4=Pi/Ci/Mi; for Single drug 4X Cell Survival (%): ng/ml: EH 1000, Ci 6000, Mi 800, Pi 160, Pa 640, Ge 20, EH/Ci/Mi regimen; for ACS (%): UM-UC-3 cells, Table 4 (B); for Cell survival 72 hours: Um-Uc-3 cells, Table 4 (A)
Protocol: (§1) The clinical grade of the chemotherapeutics (NCI Dictionary of Cancer Terms) was provided by the First Affiliated Hospital of Harbin Medical University: Pirarubicin (Pi, Wanle, Shenzhen), Paclitaxel (Pa, Taiji, Sichuan), Adriamycin (Ad, Pfizer, Jiangsu), Epirubicin Hydrochloride (EH, Haizheng, Zhejiang), Hydroxycamptothecin (Hy, Lishizhen, Hubei), Cisplatin (Ci, Haosen, Jiangsu), Gemcitabine (Ge, Haosen, Jiangsu) and Mitomycin (Mi, Haizheng, Zhejiang). The drug induced cell death was determined by a thiazolyl […] (MTT, 490 nm reading) based cell proliferation assay in the cultured cells following treatment by various concentrations of drugs for 72 hours. The relative chemoresistance to each drug of all cell lines was calculated with the lowest IC50 as a reference. The overall chemoresistance of each cell line was described as “chemoresistance index”, the numerator of the total relative IC50 to all the drugs over the number of drugs to rank the overall resistance state of each cell line to the six chemotherapeutics collectively.
The relative IC50 (fold) of each drug of all nine cell lines was normalized to the lowest IC50 in the most sensitive cell line (FIG. 2G), to describe the single drug resistance of cell lines. The overall chemoresistance of each cell line, a “chemoresistance index” (the numerator of the total relative IC50 over the number of drugs) (FIG. 2G) were calculated to rank the overall resistance state of each cell line to this six chemotherapeutics.
(§2) Twenty six-drug combinations at the indicated doses were initially generated through a random number generator (using MATLAB MathWorks©, Natick, Mass., U.S.) (The upper half of Table 1). The cell survival (% over the not drug control) of treated cells was determined and then used for a calculation of the average cumulative cell survival (%, ACS: the sum of cell survival (%) per combination divided by the number of cell lines tested). ACS<30% was used to separate the effective from the not-effective combinations.

MAPK/ERK pathway = assay: Cignal Finder dual-luciferase pathway reporter, MAPK/ERK; settings: for Relative activity, MAPK/ERK reporter: luc/Renluc relative to negative control reporter, single drug at 4 folds vs EH/Ci/Mi combination
Protocol: The pathway analysis was performed with Qiagen's Cignal Finder Pathway Reporter Array systems according to the manufacturer's instructions. The pathway-focused dual-luciferase reporter construct was a mixture of an inducible transcription factor responsive firefly luciferase reporter and constitutively expressing renilla construct. Transcriptional response element (TRE) sequence response elements to each specific transcriptional factor triggered by the different signaling pathways are positioned before the TATA box of firefly luciferase reporter gene. The extent of activity of the reporter reflects the level of activity of the particular signaling pathway. CMV controlled renilla expression vector is co-transfected into the cell as an internal control. Non-inducible reporter construct that lacks the transcriptional factor binding sequence and could not be induced by any transcription factors is used as a negative control. Cells transfected with CMV directed firefly luciferase reporter gene serve as a positive control. Briefly, cells seeded in 6-well plates were transfected with Cignal finder pathway arrays according to the manufacturer's instructions (Qiagen). Then cells were seeded onto 96-well plates. Ci (6000 ng/mL), Mi (800 ng/mL), or EH (1000 ng/mL) and Ci/Mi/EH combination (Ci, 1500 ng/mL, Mi, 800 ng/mL and EH, 1000 ng/m L) were then added to the cells 24 h post-transfection. After 6 h of incubation with the different drugs at 37° C., cells were lysed and a dual luciferase assay (for firefly and renilla luciferase) was performed using a PromegaGloMax 20/20 illuminometer. The firefly luciferase activities were normalized over the renilla luciferase activities after background activity determined by luciferase activities of negative controls was subtracted. A triple test of cell survival under these drug doses was also performed by MTT assay following 18 h incubation at 37° C. […]

[1] = test system: bladder cancer cell lines; assay: Average cumulative cell survival (ACS) over the panel of cell lines tested; settings: for ACS (%): eight cell lines, Table S3, ng/ml: Pi 40, Pa 160, EH 250, Ci 1500, Mi 200, 1=Ci/Mi, 2=EH/Ci/Mi, 3=Pa/Ci/Mi, 4=Pi/Ci/Mi; for ACS: four-fold dosed component drugs alone: Ci 6000 ng/mL, Mi 800 ng/mL, EH 1000 ng/mL (Table S4); for ACS (%) for cancer cells: seven cancer cell lines, ng/ml: EH 1000, Ci 6000, Mi 800, Pi 160, Pa 640, Ge 20, EH/Ci/Mi regimen
Protocol: as §1
The “Differential Evolution” algorithm guided experimental optimization (DE) consisted of three iterative operations: generating drug combinations of experimental testing, acquiring the efficacy of the generated drug combinations with biological assays and recalculating further improved drug combinations using a feedback search algorithm. This example first tested twenty drug combinations at randomized doses. These drug combinations were generated from a random integer matrix generator, coded in MATLAB™ language. These twenty drug combinations were then experimentally tested for cancer cell cytotoxicity. The experimental data were then subjected to calculation with a DE algorithm for new drug combinations based on three major mathematical calculations: “Mutation”, “Crossover” and “Selection”. The equations for each step can be found in the main test. The equations for each step are coded in MATLAB™ language.
as §2, with “combinations. Nine of the twenty combinations tested in the 1st round of iteration fell into this category (the lower half of Table 1).” for “combinations.”

| SMILES | Cell survival (%) (UM-UC-3) | Single drug 4X Cell Survival (%) (UM-UC-3) | ACS (%) (UM-UC-3) | Cell survival 72 hours (UM-UC-3) [%] | relative drug trigged pathway activity over the no-drug level, MAPK/ERK (MAPK/ERK pathway; 5637 cells) [fold] | Relative activity, MAPK/ERK reporter (MAPK/ERK pathway; 5637 cells) | digitalized pathway activity, MAPK/ERK (MAPK/ERK pathway; Biu87 cells) | relative drug trigged pathway activity over the no-drug level, MAPK/ERK (MAPK/ERK pathway; Biu87 cells) [fold] | Relative activity, MAPK/ERK reporter (MAPK/ERK pathway; Biu87 cells) | digitalized pathway activity, MAPK/ERK (MAPK/ERK pathway; H-bc cells) | relative drug trigged pathway activity over the no-drug level, MAPK/ERK (MAPK/ERK pathway; H-bc cells) [fold] | Relative activity, MAPK/ERK reporter (MAPK/ERK pathway; H-bc cells) | relative drug trigged pathway activity over the no-drug level, MAPK/ERK (MAPK/ERK pathway; SV-HUC-1 cells) [fold] | Relative activity, MAPK/ERK reporter (MAPK/ERK pathway; SV-HUC-1 cells) | digitalized pathway activity, MAPK/ERK (MAPK/ERK pathway; UM-UC-3 cells) | Relative activity, MAPK/ERK reporter (MAPK/ERK pathway; UM-UC-3 cells) | relative drug trigged pathway activity over the no-drug level, MAPK/ERK (MAPK/ERK pathway; Um-Uc-3 cells) [fold] | ACS (%) [1] [%] | ACS [1] [%] | ACS (%) for cancer cells [1] [%] | other results |
| --- | --- | --- | --- | --- | --- | --- | --- | --- | --- | --- | --- | --- | --- | --- | --- | --- | --- | --- | --- | --- | --- |
| N.N.[Cl][Pt][Cl] [Ci, (SP-4-2)-diamminedichloroplatinum(II)] | 14.71 | 9.33 | 9.33 | 9.33 | 1.74 | 90.77 | 0 (null (0) if neither of the above holds) | 0.66 | 321.19 | 0 (null (0) if neither of the above holds) | 0.71 | 340.57 | 1.65 | 389.00 | 0 (null (0) if neither of the above holds) | 72.05 | 0.51 | 22.9 | 16.60 | 9.11 | – |
| COc1cccc2c1C(=O)c1c(O)c3c(c(O)c1C2=O)C[C@@](O)(C(=O)CO)C[C@@H]3[C@@H]1C[C@H](N)[C@@H](O)[C@H](C)O1 [EH, (8R,10S)-10-((2S,4S,5R,6S)-4-amino-5-hydroxy-6-methyltetrahydro-2H-pyran-2-yl)-6,8,11-trihydroxy-8-(2-hydroxyacetyl)-1-methoxy-7,8,9,10-tetrahydrotetracene-5,12-dione] | 43.54 | 25.19 | 25.19 | 25.19 | 2.26 | 117.70 | 0 (null (0) if neither of the above holds) | 1.24 | 608.33 | 0 (null (0) if neither of the above holds) | 0.75 | 95.16 | 0.95 | 225.00 | – | 183.22 | 1.29 | 39.75 | 9.11 | 16.60 | digitalized pathway activity, MAPK/ERK (MAPK/ERK pathway; SV-HUC-1 cells): 0 (null (0) if neither of the above holds) |
| COC12C(COC(N)=O)C3=C(C(=O)C(C)=C(N)C3=O)N1CC1NC12 (centres unmarked) [Mi, [6-Amino-8a-methoxy-5-methyl-4,7-dioxo-1,1a,2,4,7,8,8a,8b-octahydroazireno [2′,3′:3,4]pyrrolo[1,2-a]indol-8-yl]methyl carbamate] | 66.2 | 54.74 | 54.71 | 54.71 | 3.73 | 194.59 | – | 2.04 | 1001.57 | – | 0.45 | 59.07 | 1.42 | 335.00 | 0 (null (0) if neither of the above holds) | 151.35 | 1.06 | 56.85 | 40.49 | 40.49 | digitalized pathway activity, MAPK/ERK (MAPK/ERK pathway; SV-HUC-1 cells): 0 (null (0) if neither of the above holds) |
